# Measurements as given in patent publication US12600725B2 (Memorial Sloan-Kettering Cancer Center, priority 2013, dated 2026).
# What was measured:
# [1] = tested on: PANC-1 cells; assay: Cell viability assessment (CellTiter-Glo); assay type: cell-based
# [2] = tested on: MKN74 cells; assay: Cell viability assessment (CellTiter-Glo); assay type: cell-based
# [3] = tested on: downstream EGFR signaling in MDA-MB-468 tumors; assay: PD analysis of tumors (Western blot); assay type: in vivo, mouse; settings: 75 mg/kg ip
# Procedure: For this purpose we used mice bearing MDA-MB-468 tumors (a triple-negative breast tumor with EGFR-overexpression). Because of the specific affinity of the provided Grp94 inhibitors for tumor Grp94, we performed PK/PD studies that are tailored for this purpose. In this PK/PD study we incorporated two time points, a 2 h and a 24 h time of sacrifice post-administration. The early time point is incorporated to test the biodistribution of the agent to the site of its action, the tumor; PU-WS13 was readily distributed to tumor mass with -850 μM noted in tumor at 2 h versus 100 μM in the plasma (FIG. 25A). […] The concentration of PU-WS13 in the tumor at 24 h post-administration of single dose of 75 mg/kg was 0.5 μM. […] We also analyzed the potential suppression by PU-WS13 of normal Grp94 functions. A “housekeeping” function for Grp94 was identified using a conditional knock-out mouse model; that study found a role for Grp94 in normal GI cells, i.e. regulation of the Wnt receptor LRP6 (Liu et al., Proc Natl Acad Sci USA. 2013 Apr. 23; 110(17):6877-82). […]
# The other half of tumor tissues were evaluated for changes in EGFR and other PD markers as established in our laboratory. […] After quantifying the protein concentrations by BCA, 25-100ug proteins were loaded into SDS-PAGE and subjected to immunoblotting.
# [4] = tested on: CFPAC cells; assay: Cell viability assessment (CellTiter-Glo); assay type: cell-based
# [5] = tested on: A673 Ewing sarcoma cells; assay: Apoptosis assessment (Annexin V / 7AAD); assay type: cell-based
# Procedure: (§1) The disclosure provides evidence that Grp94 inhibitors are efficacious in treating cancer with altered expression of the IGF1R and where the receptor is necessary for pathogenesis and tumor progression.
# (§2) Cell cycle and apoptosis assessment. Cell cycle and apoptosis were assessed by flow cytometry after single staining with propidium iodide (PI, BD Pharmingen) or double staining with AnnexinV-FITC (BD Pharmingen) and 7AAD (BD Pharmingen), respectively. Specifically, for cell cycle analysis, cells were washed twice with cold PBS and fixed in 70% ethanol overnight at 4° C. Fixed cells were collected at 1800 rpm for 10 min and stained with PBS containing PI and DNase-free RNase A (Sigma-Aldrich) for 1 h at room temperature in the dark. DNA content was measured by BD LSRII flow cytometer and cell further analyzed using program of cell cycle analysis in FloJo (Ashland, OR). The chicken erythrocyte nuclei singlets (CEN, Biosure) were used as the reference. For apoptosis assessment, live cells were collected, washed twice with cold PBS, resuspended in Binding Buffer and stained with AnnexinV-FITC and 7AAD for 15 min at room temperature in the dark. Signals from FL1 and FL3 channels were collected by MACSQuant analyzer and further analyzed using FloJo. Early apoptosis was defined as AnnexinV+/7AAD−, and late apoptosis was observed as AnnexinV+/7AAD+.
# [6] = tested on: TC71 Ewing sarcoma cells; assay: Apoptosis assessment (Annexin V / 7AAD); assay type: cell-based
# Procedure: as §1, §2
# [7] = tested on: HER2 at the plasma membrane of SKBr3 cells; assay: Immunofluorescence of HER2 architecture at the plasma membrane; assay type: cell-based
# Procedure: We next investigated the biological significance of the unique association of HER^2 with Grp94 at the plasma membrane of SKBr3 cells. Because the Grp94 inhibitors described here target the ATP-binding pocket of Grp94, they affect Grp94 chaperone activity. Therefore we hypothesized that Grp94 may act on HER^2 at the plasma membrane to stabilize the protein and to regulate its function.
# Immunofluorescence. Cells were seeded and grown onto culture slides (BD Falcon) for 24 hrs. After washing with cold PBS, cells were fixed by treating at 4° C. for 20 min with 4% paraformaldehyde in PBS, permeabilized with 0.1% Triton X-100 in PBS containing 10% FBS for 10 min, and blocked with 2% BSA for 1 hr. After washing for four times with PBS, primary antibodies were added onto the chambers and cell were incubated overnight at 4° C., washed again with PBS followed by incubation with the secondary antibody for 1 hr at room temperature. Cell were washed and then mounted and observed under microscope (Leica Upright Confocal SP5). The primary antibodies used in the assay are against: HER^2 (Zymed, 28004), Grp94 (Stressgen, SPA-850), Hsp70 (Stressgen, SPA-810), LAMP1-FITC (Abcam, ab25406), EEA1 (Abcam, ab70521), 58K Golgi-FITC (Abcam, ab27043) and Calnexin (BD, 610523).
# [8] = tested on: Toll-like receptor 9 (TLR9) trafficking in HEK293 cells transfected with HA-TLR9; assay: TLR9-trafficking assay; assay type: cell-based, human; settings: 24 h treatment
# Procedure: TLR^9-trafficking assay (Yang, Y. et al. Heat shock protein gp96 is a master chaperone for toll-like receptors and is important in the innate function of macrophages. Immunity 26, 215-26 (2007)). HEK 293T cells were transfected with pUNO-hTLR9-HA (Invivogen) using X-tremgene HP (Roche) according to the manufacturer's instructions. At 24 hrs post-transfection, cells were split onto cell culture chamber slides (Lab-Tek). Cells were then treated for 24 hrs with indicated compound at varying concentrations. After treatment, cells were fixed for 20 min in 4% paraformaldehyde in PBS, permeabilized with 0.1% Triton-X 100 in PBS for 10 min, blocked with 3% BSA in PBS for 30 min, followed by staining for 1 hr with an anti-HA antibody (Abcam, ab9110) or a normal rabbit IgG. Cells were washed with PBS, stained with an anti-rabbit-Cy3 antibody (Invitrogen) and finally mounted in the dark at 4° C. with Prolong Gold Antifade reagent (with DAPI). Cells were visualized under a confocal microscope (Leica Upright Confocal SP5). Fluorescence intensity was quantified using MetaMorph Microscopy Automation and Image Analysis Software (Molecular Devices Inc.) and normalized to the cell number.
# [9] = tested on: LRP6 in the normal GI; assay: PD analysis of normal GI tissues (Western blot); assay type: in vivo, mouse
smiles,measurement,setting,value
CC(C)NCCCn1c(Sc2cc(Cl)cc(Cl)c2)nc2c(N)ncnc21 [PU-WS13],effect on cell growth,[1],effectively inhibited the growth
same,sensitivity to Grp94 inhibition,[2],not sensitive
same,PD effect in tumor (p-AKT and p-ERK inhibition),[3],partial suppression of downstream EGFR signaling
same,effect on cell growth,[4],modest effect
same,induction of apoptosis,[5],capable of inducing apoptosis
same,induction of apoptosis,[6],capable of inducing apoptosis
same,effect on HER2 architecture at the plasma membrane,[7],disruption of the circular architecture of HER^2 at the plasma membrane
same,TLR9 trafficking,[8],inhibits TLR^9 trafficking
same,LRP6 levels in normal GI,[9]; 75 mg/kg,could not detect a significant decrease in LRP6
same,LRP6 levels in normal GI,[9]; 150 mg/kg,no acute tox or change in LRP6 levels
